Measured values published in patent US7531534B2, “Heterocyclic antiviral compounds” (Roche Palo Alto LLC, priority 2006, dated 2009).
Where two headings read alike, the source gives them in different places.

How the values were obtained:
[1] = test system: Renilla luciferase HCV replicon cells (2209-23); test: Renilla luciferase Assay (HCV replicon); format: cell-based; conditions: Huh-7, 72 h; replicon cells 2209-23 (Huh7), three days incubation; read-out: R. luciferase Activity IC50
[2] = target: T1, HCV NS5B570n-BK (Hepatitis C virus genotype 1b, UniProt P26663); test: HCV NS5B RNA Polymerase Activity; format: biochemical
T1 construct: histidine tag (N); made in house; host or cells: E. coli strain M15
T1 sequence (P26663 2420-2989): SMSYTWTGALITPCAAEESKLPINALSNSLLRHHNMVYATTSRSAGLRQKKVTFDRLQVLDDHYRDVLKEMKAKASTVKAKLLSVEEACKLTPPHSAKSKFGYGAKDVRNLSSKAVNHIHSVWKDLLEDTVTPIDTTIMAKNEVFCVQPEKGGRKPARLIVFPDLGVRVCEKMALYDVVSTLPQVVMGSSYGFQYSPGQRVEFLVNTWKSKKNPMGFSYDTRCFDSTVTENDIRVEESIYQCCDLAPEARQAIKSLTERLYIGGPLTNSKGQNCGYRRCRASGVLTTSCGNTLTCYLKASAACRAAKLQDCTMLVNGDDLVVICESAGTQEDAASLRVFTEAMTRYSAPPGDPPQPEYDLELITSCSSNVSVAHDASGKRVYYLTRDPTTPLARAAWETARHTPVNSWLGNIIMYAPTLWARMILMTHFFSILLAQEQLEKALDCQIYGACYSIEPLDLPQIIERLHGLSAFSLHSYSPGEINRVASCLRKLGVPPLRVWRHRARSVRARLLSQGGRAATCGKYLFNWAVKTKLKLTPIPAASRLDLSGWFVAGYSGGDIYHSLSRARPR
Description: The enzymatic activity of HCV NS5B570n-BK is measured as incorporation of radiolabeled nucleotide monophosphates into acid insoluble RNA products. Unincorporated radiolabel substrate is removed by filtration and scintillant is added to the washed and dried filter plate containing radiolabeled RNA product. The light emitted by the scintillant is proportional to the amount of RNA product generated by NS5B570n-BK at the endpoint of the reaction.
The N-terminally histidine tagged HCV polymerase, derived from HCV BK strain, genotype 1b (NS5B570n-BK) contains a 21 amino acid deletion at the C-terminus relative to the full-length HCV polymerase and is purified from E. coli strain M15. The construct containing the coding sequence of HCV BK strain amino acid residues 2421-2999 (GenBank accession number M58335) downstream of a […] promoter expression cassette was inserted into plasmid constructs. The plasmid constructs are transformed in E. coli and colonies are inoculated and grown overnight in 10 L of Terrific broth (Tartoff and Hobbs) supplemented with 100 μg/mL ampicillin at 37° C. Protein expression is induced by addition of 1 mM isopropyl-β-D-thiogalactopyranoside (IPTG), when optical densities reaches between 1.5 and 3.5 OD600 and the culture is then incubated for 16- to 18 h at 22° C. NS5B570n-BK is purified to homogeneity using a three step protocol including subsequent column chromatography on Ni-NTA, SP-Sepharose HP and Superdex 75 resins. […]
The amount of light emitted from the scintillant is converted to counts per minute (CPM) on a Topcount® plate reader (Perkin-Elmer, Energy Range: Low, Efficiency Mode: Normal, Count Time: 1 min, Background Subtract: none, Cross talk reduction: Off).
Data is analyzed with GraphPad® Prism® and/or Microsoft® Excel®. […] All data is expressed as a percentage of the positive control. […]

[3] = test system: HCV; conditions: ribavirin monotherapy; cited from earlier work

In the case of `CC1=C(C2=C(O)[C@H](C(C)(C)C)N(Cc3ccc(F)cc3)C2=O)Nc2ccc(NS(C)(=O)=O)cc2S1(=O)=O`, the melting point is reported as 170 to 174 °C.
`CCS(=O)(=O)Nc1ccc2c(c1)S(=O)(=O)C(Cl)=C(C1=C(O)[C@H](C(C)(C)C)N(Cc3ccc(F)c(Cl)c3)C1=O)N2` showed a melting point of 140 to 144 °C.
For `CC(C)(C)[C@H]1C(O)=C(C2=C(Cl)S(=O)(=O)c3cc(NS(=O)(=O)C4CC4)ccc3N2)C(=O)N1Cc1ccc(F)c(Cl)c1`, the melting point was 137 to 141 °C.
Molecule `CCS(=O)(=O)Nc1ccc2c(c1)S(=O)(=O)C(Cl)=C(C1=C(O)[C@H](C(C)(C)C)N(CCC(C)C)C1=O)N2` has a melting point of 125 to 165 °C.
`CC(C)(C)[C@H]1C(O)=C(C2=C(Cl)S(=O)(=O)c3cc(NS(C)(=O)=O)ccc3N2)C(=O)N1Cc1ccccc1` showed a melting point of 148 to 152 °C.
Work on `CC(C)(C)[C@H]1C(O)=C(C2=C(Cl)S(=O)(=O)c3cc(NS(C)(=O)=O)ccc3N2)C(=O)N1CCC1CCCC1` yielded a melting point of 137 to 141 °C.
In the case of `COc1cc(CN2C(=O)C(C3=C(Cl)S(=O)(=O)c4cc(NS(C)(=O)=O)ccc4N3)=C(O)[C@@H]2C(C)(C)C)ccc1F`, the melting point is reported as 139 to 144 °C.
`CC(C)CCN1C(=O)C(C2=C(Cl)S(=O)(=O)c3cc(NS(C)(=O)=O)ccc3N2)=C(O)[C@@H]1C(C)(C)C` showed a melting point of 142 to 145 °C.
Molecule `CN(C)C(=O)C1=C(C2=C(O)[C@H](C(C)(C)C)N(Cc3ccc(F)cc3)C2=O)Nc2ccc(NS(C)(=O)=O)cc2S1(=O)=O` has a melting point of 140 °C.
With `COc1cc(CN2C(=O)C(C3=C(C#N)S(=O)(=O)c4cc(NS(C)(=O)=O)ccc4N3)=C(O)C2C(C)(C)C)ccc1F` (stereo not shown) the melting point was 218 °C.
In the case of `Cc1cc(CN2C(=O)C(C3=C(C#N)S(=O)(=O)c4cc(NS(C)(=O)=O)ccc4N3)=C(O)C2C(C)(C)C)ccc1F` (stereo not shown), the melting point is reported as greater than 250 °C.
In the case of `CC(C)CCN1C(=O)C(C2=C(C#N)S(=O)(=O)c3cc(NS(C)(=O)=O)ccc3N2)=C(O)C1C(C)(C)C` (stereo not shown), the melting point is reported as greater than 250 °C.
In the case of `CC(C)(C)C1C(O)=C(C2=C(C#N)S(=O)(=O)c3cc(NS(C)(=O)=O)ccc3N2)C(=O)N1CCC1CCCC1` (stereo not shown), the melting point is reported as greater than 250 °C.
With `CC(C)CCN1C(=O)C(C2=C(C(N)=O)S(=O)(=O)c3cc(NS(C)(=O)=O)ccc3N2)=C(O)[C@@H]1C(C)(C)C` the melting point was 150 to 155 °C.
Molecule `Cc1cc(CN2C(=O)C(C3=C(C(N)=O)S(=O)(=O)c4cc(NS(C)(=O)=O)ccc4N3)=C(O)[C@@H]2C(C)(C)C)ccc1F` has a melting point of 168 to 172 °C.
Work on `CC1=C(C2=C(O)[C@H](C(C)(C)C)N(CCC(C)C)C2=O)Nc2ccc(NS(C)(=O)=O)cc2S1(=O)=O` yielded a melting point of 210 to 215 °C.
For `CC(C)(C)[C@H]1c2oc(=O)c3c(c2C(=O)N1Cc1ccc(F)cc1)Nc1ccc(NS(C)(=O)=O)cc1S3(=O)=O`, the melting point was 120 °C.
Work on `CCS(=O)(=O)Nc1ccc2c(c1)S(=O)(=O)C(Cl)=C(C1=C(O)[C@H](C(C)(C)C)N(Cc3ccc(F)cc3)C1=O)N2` yielded a melting point of 136 to 140 °C.
For `CC(C)(C)[C@H]1C(O)=C(C2=C(Cl)S(=O)(=O)c3cc(NS(=O)(=O)C4CC4)ccc3N2)C(=O)N1Cc1ccc(F)cc1`, the melting point was 137 to 141 °C.
`Cc1cc(CN2C(=O)C(C3=C(Cl)S(=O)(=O)c4cc(NS(C)(=O)=O)ccc4N3)=C(O)[C@@H]2C(C)(C)C)ccc1F` gave a melting point of 140 to 146 °C.
With `CCS(=O)(=O)Nc1ccc2c(c1)S(=O)(=O)C(Cl)=C(C1=C(O)[C@H](C(C)(C)C)N(Cc3ccc(F)c(C)c3)C1=O)N2` the melting point was 130 to 135 °C.
`Cc1cc(CN2C(=O)C(C3=C(Cl)S(=O)(=O)c4cc(NS(=O)(=O)C5CC5)ccc4N3)=C(O)[C@@H]2C(C)(C)C)ccc1F` showed a melting point of 127 to 131 °C.
In the case of `CC(C)(C)[C@H]1C(O)=C(C2=C(Cl)S(=O)(=O)c3cc(NS(C)(=O)=O)ccc3N2)C(=O)N1Cc1ccc(F)c(Cl)c1`, the melting point is reported as 147 to 151 °C.
Work on `CC(C)(C)[C@H]1C(O)=C(C2=C(Cl)S(=O)(=O)c3cc(NS(C)(=O)=O)ccc3N2)C(=O)N1Cc1ccc(F)cc1` [Compound I-3, N-{3-[(S)-5-tert-Butyl-1-(4-fluoro-benzyl)-4-hydroxy-2-oxo-2,5-dihydro-1H-pyrrol-3-yl]-2-chloro-1,1-dioxo-1,4-dihydro-1λ^6-benzo[1,4]thiazin-7-yl}-methanesulfonamide] yielded a melting point of 144 to 148 °C, an IC50 [1] of 4 nM and an IC50 [2] of 2 nM.
For `Cc1cc(CN2C(=O)C(C3=C(F)S(=O)(=O)c4cc(NS(C)(=O)=O)ccc4N3)=C(O)[C@@H]2C(C)(C)C)ccc1F` [Compound I-18, N-{3-[(S)-5-tert-Butyl-1-(4-fluoro-3-methyl-benzyl)-4-hydroxy-2-oxo-2,5-dihydro-1H-pyrrol-3-yl]-2-fluoro-1,1-dioxo-1,4-dihydro-1λ^6-benzo[1,4]thiazin-7-yl}-methanesulfonamide], the IC50 [1] was 16 nM and the IC50 ([2]; NS5B570n-BK, poly A:oligo U16, tritiated UTP incorporation, read-out: Polymerase Assay IC50) was 5 nM.
With `CC(C)(C)C1C(O)=C(C2=C(C#N)S(=O)(=O)c3cc(NS(C)(=O)=O)ccc3N2)C(=O)N1Cc1ccc(F)cc1` (stereo not shown) [Compound I-19, N-{3-[5-tert-Butyl-1-(4-fluoro-benzyl)-4-hydroxy-2-oxo-2,5-dihydro-1H-pyrrol-3-yl]-2-cyano-1,1-dioxo-1,4-dihydro-1λ^6-benzo[1,4]thiazin-7-yl}-methanesulfonamide] the IC50 [1] was 16 nM and the IC50 [2] was 6 nM.
In the case of `NC(=O)c1ncn([C@@H]2O[C@H](CO)[C@@H](O)[C@H]2O)n1` [ribavirin, 1-((2R,3R,4S,5R)-3,4-Dihydroxy-5-hydroxymethyl-tetrahydro-furan-2-yl)-1H-[1,2,4]triazole-3-carboxylic acid amide], the “patients in whom serum amino transferase levels are reduced to normal” value [3] is listed as 40%.
